Experiments:
[1] = system: antiserum raised against 9-deoxy-9-methylene PGF2 (BSA Conjugate); test: RIA cross-reactivity, displacement of [^3 H] PGE2 from antiserum (BSA Conjugate); type: binding, rabbit; details: relative to PGE2; ng. required to displace 50% of [^3 H] PGE2
Protocol: (§1) Five milligrams of KLH-PGE2 mimic conjugate is added to 2.25 ml. of sterile saline (0.9%) and 2.25 ml. of Freund's complete adjuvant and blended. 1.0 ml. of this mixture is injected subcutaneously at 20-30 sites on the flanks of four Albino New Zealand rabbits of 2-4 kg. mass. Each rabbit receives a dose of about 1 mg. On the same day, 1.0 ml. of attenuated pertussis vaccine is injected intramuscularly at four sites on the hindquarters of each rabbit.
(§2) A known amount of PGE-type compound in 0.1 ml. PBSG buffer at pH 7.4±0.2 and 0.1 ml. of the radiolabeled form of the same PGE-type compound (10,000 cpm/0.1 ml. PBSG) are introduced into a 12×75 mm. polypropylene tube. Antiserum (0.1 ml.) against the corresponding mimic is added at a dilution which will bind 50%±3% of the radiolabeled authentic PGE-type compound in the absence of competition from the unlabeled PGE-type compound. The tube is incubated for 1 hour at 25° and then 12-16 hours at 4°. Antibody bound and free fractions are separated with dextran-coated charcoal. Other separation techniques are acceptable.
(§3) The data below show the cross-reactivity of antiserum raised against 9-deoxy-9-methylene PGF2 to various PGE-type compounds, relative to PGE2. Percent crossreaction is defined as (ng. of PGE2 required to displace 50% of [^3 H] PGE2)/(ng. heterologous PG required to displace 50% of [^3 H] PGE2)×100.

[2] = system: antiserum raised against 9-deoxy-9-methylene PGF2 (KLH Conjugate); test: RIA cross-reactivity, displacement of [^3 H] PGE2 from antiserum (KLH Conjugate); type: binding, rabbit; details: relative to PGE2; ng. required to displace 50% of [^3 H] PGE2
Protocol: as §1, §2, §3

- % Cross-Reaction BSA Conjugate [1]: 2.9%
- % Cross-Reaction KLH Conjugate [2]: 0.09%
SMILES: CCCCC[C@H](O)/C=C/[C@@H]1[C@@H](CCCCCCC(=O)O)[C@@H](O)C[C@H]1O [PGF1 α]

From US4218436A, “Compounds and methods” (The Upjohn Company, priority 1979, dated 1980)
